The subject of series [1] is Staphylococcus aureus ssp. Aureus. Nature of the series: In vitro antibacterial activity (MIC), S. aureus. It is filed as cell-based. Particulars: read-out: Sa MIC95.
In the next series the test system is Acinetobacter baumannii. Nature of the series: In vitro antibacterial activity (growth inhibition, OD600), A. baumannii. It is filed as cell-based. Particulars: for MIC: read-out: Ab MIC95.
The subject of a further series is Escherichia coli ∆tolC. Nature of the series: microbe, parasite or virus in culture. The series is classed as cell-based.
Series [2] has as its system Pseudomonas aeruginosa PA14. Nature of the series: In vitro antibacterial activity (growth inhibition, OD600), P. aeruginosa. It is filed as cell-based. The settings on record: PA14, 50 μM compound, Table 1 and main text, read-out: PA14 inh. at 50 μM.
A further series is described as follows: in vitro. The settings on record: human, HepG2 CC50, 48 h, MTT.
For series [3], the system named is Plasmodium falciparum NF54. Nature of the series: P. falciparum in vitro drug sensitivity assay on asexual blood stage parasites ([3H]-hypoxanthine incorporation). Particulars: Plasmodium falciparum, NF54, Table 1 and main text; read-out: PfNF54 IC50. The series is classed as cell-based.
The test system of the next series is E. coli K12. Nature of the series: In vitro antibacterial activity (growth inhibition, OD600), E. coli wild-type. The series is classed as cell-based. The settings on record: Escherichia coli; for inhibition at 50 µM: Table 1 and main text.
The subject of series [4] is Streptococcus pneumoniae (DSM20566). Nature of the series: In vitro antibacterial activity (MIC), S. pneumoniae. The settings on record: read-out: Sp MIC95. It is filed as cell-based.
The nature of a further series: Solubility in 7H9 medium. It is filed as physicochemical. The settings on record: M. tuberculosis growth medium (7H9).
The test system of series [5] is Mycobacterium tuberculosis (Mtb) strain H37Rv. Nature of the series: microbe, parasite or virus in culture. It is filed as cell-based. The settings on record: 168 h, 7 days, footnote b: not active at maximum solubility, read-out: MtbH37Rv MIC90.
Series [6] can be described thus: In vitro cytotoxicity by XTT assay. It is filed as cell-based. Particulars: human, human monocyte-derived macrophages (hMdM). On the technique in general: Tetrazolium dyes change colour on reduction, which living cells bring about.
Where [7] appears, read: Staphylococcus aureus, Table 1 and main text.
The mark [8] stands for this setting: Staphylococcus aureus, Table S2, with standard deviation.
The mark [9] stands for this setting: 50 μM compound, Table 1 and main text, read-out: Ab inh. at 50 μM.
Where [10] appears, read: Escherichia coli, read-out: EcΔtolC MIC95.
Setting [11] is: K12, 50 μM compound, read-out: EcK12 inh. at 50 μM.
Where [12] appears, read: Streptococcus pneumoniae, DSM20566, Table 1 and main text.
Setting [13] is: Streptococcus pneumoniae, DSM20566, Table S2, with standard deviation.
Setting [14] is: Escherichia coli, read-out: Ec∆tolC MIC95 (µM).

Molecules are shown by their SMILES. ≈ marks a conversion by molar mass, not a printed value. Like-named read-outs stand apart in the source and are kept apart here.

Consider `O=C(Nc1cccc(C(F)(F)F)c1)c1cc(-c2cc(Cl)ccc2O)[nH]n1` [Compound 1a], for which the MIC in [1] (setting [7]) is over 50 µM; in series [1] (setting [8]), over 50 µM; in [1] (Table 1 and main text), over 50 µM; in the series on Escherichia coli ∆tolC (setting [10]), over 50 µM; in series [4] (setting [12]), over 50 µM; in series [4] (setting [13]), over 50 µM. Also, in [4] (Table 1 and main text), the MIC is recorded as over 50 µM. Moreover, the inhibition at 50 µM is under 10% in the series with Acinetobacter baumannii (setting [9]); under 10% with Escherichia coli ∆tolC (Escherichia coli, read-out: Ec∆tolC inh. at 50 µM (%)); under 10% in series [2]; under 10% in the series on E. coli K12 (setting [11]). In addition, the “EcΔtolC MIC95” value in the series with Escherichia coli ∆tolC (Table 1 and main text) is over 50 µM. The compound also gave a CC50 in “in vitro” of over 50 µM. For the same compound, in series [3], the IC50 (usually the midpoint of a concentration-inhibition curve) worked out at 0.21 µM. In addition, the “7h9 media Sol.” value in the series “Solubility in 7H9 medium” is under 8 µM.
`O=C(Nc1cccc(CN2CCNCC2)c1)c1cc(-c2cc(Cl)ccc2O)[nH]n1` [Compound 3A]: the MIC was over 50 µM in [1] (setting [7]); over 50 µM in [1] (setting [8]); 45 µM (≈ 18.5 µg/mL) in the series on Escherichia coli ∆tolC (setting [10]); 45 ± 1 µM (≈ 18.5 µg/mL) with Escherichia coli ∆tolC (setting [14]); 40 µM (≈ 16.5 µg/mL) in [4] (setting [12]); 40 ± 7 µM (≈ 16.5 µg/mL) in series [4] (setting [13]). Besides, the inhibition at 50 µM in the series on Acinetobacter baumannii (setting [9]) came to 21%; in [2] it was 50%; in the series on E. coli K12 (setting [11]), 28%. In addition, in “in vitro”, the CC50 came out at 12 µM. Moreover, the IC50 in series [3] turned out to be 0.62 µM. The “7h9 media Sol.” value in “Solubility in 7H9 medium” is on record as 64 µM. Further, the MIC90 in series [5] was over 64 µM.
For `O=C(Nc1cccc(N2CCNCC2)c1)c1cc(-c2cc(Cl)ccc2O)[nH]n1` [Compound 5A], the MIC in series [1] (setting [7]) amounted to 37 µM (≈ 14.7 µg/mL); in [1] (setting [8]), 37 ± 10 µM (≈ 14.7 µg/mL); in the series with Escherichia coli ∆tolC (setting [10]) it was 21 µM (≈ 8.36 µg/mL); with Escherichia coli ∆tolC (setting [14]), 21 ± 2 µM (≈ 8.36 µg/mL); in [4] (setting [12]), 26 µM (≈ 10.3 µg/mL); in series [4] (setting [13]) it was 26 ± 1 µM (≈ 10.3 µg/mL). The inhibition at 50 µM in the series with Acinetobacter baumannii (setting [9]) was found to be 34%; in the series on Acinetobacter baumannii (50 µM, Table S1, with standard deviation, read-out: Ab inh. at 50 µM (%)), 34.3 ± 0.4%; in series [2] it was 60%; in the series on E. coli K12 (setting [11]), 83%. The CC50 in “in vitro” was determined as 9 µM. Moreover, in series [3], the IC50 is 0.13 µM. The “7h9 media Sol.” value in “Solubility in 7H9 medium” is recorded as 64 µM. Further, in series [5], the MIC90 was 64 µM (≈ 25.5 µg/mL).
`O=C(Nc1ccc(N2CCNCC2)cc1)c1cc(-c2cc(Cl)ccc2O)[nH]n1` [Compound 6A]: the MIC is over 50 µM in series [1] (setting [7]); over 50 µM in [1] (setting [8]); 22.5 µM (≈ 8.95 µg/mL) in the series on Escherichia coli ∆tolC (setting [10]); 22.5 µM (≈ 8.95 µg/mL) with Escherichia coli ∆tolC (setting [14]); 45 µM (≈ 17.9 µg/mL) in series [4] (setting [12]); 45 µM (≈ 17.9 µg/mL) in [4] (setting [13]). Further, the figures for the inhibition at 50 µM (in the series on Acinetobacter baumannii (setting [9]); in series [2]; with E. coli K12 (setting [11])) were 37%, 63% and 49%, respectively. This compound also yielded a CC50 in “in vitro” of 11.8 µM. For the same compound, in series [3], the 50% inhibitory concentration (IC50) worked out at 0.14 µM. Also, the “7h9 media Sol.” value in the series “Solubility in 7H9 medium” is 16 µM. In addition, the MIC90 in [5] was over 16 µM.
Turning to `NCc1cccc(NC(=O)c2cc(-c3cc(Cl)ccc3O)[nH]n2)c1` [Compound 7A], the MIC in [1] (setting [7]) is over 50 µM; in [1] (setting [8]), over 50 µM; in the series on Escherichia coli ∆tolC (setting [10]) it was 47 µM (≈ 16.1 µg/mL); with Escherichia coli ∆tolC (setting [14]), 47 ± 1 µM (≈ 16.1 µg/mL); in series [4] (setting [12]) it was 43 µM (≈ 14.7 µg/mL); in series [4] (setting [13]), 43 ± 11 µM (≈ 14.7 µg/mL). Further, the results for the inhibition at 50 µM (in the series with Acinetobacter baumannii (setting [9]); in series [2]; in the series on E. coli K12 (setting [11])) were 15%, 44% and 27%, respectively. Besides, the CC50 in the series “in vitro” is 28.4 µM. Moreover, the IC50 in series [3] came out at 0.3 µM. The “7h9 media Sol.” value in “Solubility in 7H9 medium” is given as 64 µM. Besides, the MIC90 in series [5] is over 64 µM.
As for `N=C(N)NCc1ccc(NC(=O)c2cc(-c3cc(Cl)ccc3O)[nH]n2)cc1C(F)(F)F` [Compound 10G], the MIC in [1] (setting [7]) came out at 5 µM (≈ 2.26 µg/mL); in series [1] (setting [8]), 5 ± 1 µM (≈ 2.26 µg/mL); in the series with Escherichia coli ∆tolC (setting [10]) it was 3.5 µM (≈ 1.58 µg/mL); in the series on Escherichia coli ∆tolC (setting [14]), 3.5 ± 0.8 µM (≈ 1.58 µg/mL); in [4] (setting [12]), 16 µM (≈ 7.25 µg/mL); in series [4] (setting [13]) it was 16 ± 5 µM (≈ 7.25 µg/mL). Moreover, the figures for the inhibition at 50 µM (with Acinetobacter baumannii (setting [9]); in series [2]; with E. coli K12 (setting [11])) were 49%, 55% and 86%, respectively. The CC50 in “in vitro” was over 50 µM. In addition, the IC50 in [3] was found to be 0.25 µM. Also, in series [6], the CC90 at 24 h is over 32 µM. The MIC90 in [5] worked out at 8 µM (≈ 3.62 µg/mL).
As to `N=C(N)N1CCN(c2cc(NC(=O)c3cc(-c4cc(Cl)ccc4O)[nH]n3)cc(C(F)(F)F)c2)CC1` [Compound 11G, N-(3-(4-Carbamimidoylpiperazin-1-yl)-5-(trifluoromethyl)phenyl)-5-(5-chloro-2-hydroxyphenyl)-1H-pyrazole-3-carboxamide], the MIC in series [1] (setting [7]) came out at 3.2 µM (≈ 1.63 µg/mL); in series [1] (setting [8]), 3.2 ± 0.1 µM (≈ 1.63 µg/mL); with Acinetobacter baumannii (Table S1, printed inside the inhibition column, with standard deviation, unit from Table 1 footnote), 17 ± 5 µM (≈ 8.63 µg/mL); with Acinetobacter baumannii (printed inside the Ab inhibition column, Table 1 and main text), 17 µM (≈ 8.63 µg/mL); in the series on Escherichia coli ∆tolC (setting [10]), 4 µM (≈ 2.03 µg/mL); in the series with Escherichia coli ∆tolC (setting [14]), 4 ± 1 µM (≈ 2.03 µg/mL). Moreover, the MIC in the series with E. coli K12 (K12, Table S1, printed inside the inhibition column, with standard deviation, unit from Table 1 footnote, read-out: EcK12 MIC95) came to 48 ± 5 µM (≈ 24.4 µg/mL); in series [4] (setting [12]) it was 28 µM (≈ 14.2 µg/mL); in series [4] (setting [13]), 28 ± 15 µM (≈ 14.2 µg/mL). Further, the inhibition at 50 µM in [2] came to 25%. This compound registered a CC50 in the series “in vitro” of over 25 µM. In addition, in [3], the IC50 came to 0.5 µM. The same compound gave a CC90 at 24 h in series [6] of over 32 µM. For the same compound, the MIC90 in series [5] was 8 µM (≈ 4.06 µg/mL).
In the case of `N=C(N)N1CCN(c2ccc(NC(=O)c3cc(-c4cc(Cl)ccc4O)[nH]n3)cc2C(F)(F)F)CC1` [Compound 12G, N-(4-(4-Carbamimidoylpiperazin-1-yl)-3-(trifluoromethyl)phenyl)-5-(5-chloro-2-hydroxyphenyl)-1H-pyrazole-3-carboxamide], the MIC in series [1] (setting [7]) worked out at 2.4 µM (≈ 1.22 µg/mL); in series [1] (setting [8]), 2.4 ± 0.3 µM (≈ 1.22 µg/mL); in the series on Escherichia coli ∆tolC (setting [10]), 2.8 µM (≈ 1.42 µg/mL); with Escherichia coli ∆tolC (setting [14]) it was 2.8 ± 0.3 µM (≈ 1.42 µg/mL); in [4] (setting [12]) it was 31 µM (≈ 15.7 µg/mL); in series [4] (setting [13]) it was 31 ± 6 µM (≈ 15.7 µg/mL). Besides, the inhibition at 50 µM with Acinetobacter baumannii (setting [9]) was 33%; in [2], under 10%; with E. coli K12 (setting [11]), 51%. Further, the CC50 in the series “in vitro” stood at 30 µM. In series [3], the IC50 was found to be 0.2 µM. The compound further displayed a CC90 at 24 h in [6] of 32 µM. For the same compound, the MIC90 in series [5] amounted to 4 µM (≈ 2.03 µg/mL).
Turning to `N=C(N)N1CCN(c2cc(NC(=O)c3cc(-c4cc(Cl)ccc4O)[nH]n3)ccc2C(F)(F)F)CC1` [Compound 13G, N-(3-(4-Carbamimidoylpiperazin-1-yl)-4-(trifluoromethyl)phenyl)-5-(5-chloro-2-hydroxyphenyl)-1H-pyrazole-3-carboxamide], the MIC in series [1] (setting [7]) turned out to be 2.5 µM (≈ 1.27 µg/mL); in series [1] (setting [8]), 2.5 ± 0.3 µM (≈ 1.27 µg/mL); in the series on Escherichia coli ∆tolC (setting [10]) it was 5 µM (≈ 2.54 µg/mL); with Escherichia coli ∆tolC (setting [14]), 5 ± 2 µM (≈ 2.54 µg/mL); in series [4] (setting [12]), 16 µM (≈ 8.13 µg/mL); in series [4] (setting [13]), 16 ± 6 µM (≈ 8.13 µg/mL). For the same compound, the inhibition at 50 µM is at least 45% in the series on Acinetobacter baumannii (setting [9]); 17% in series [2]; at least 45% in the series on E. coli K12 (K12, read-out: EcK12 inh. at 50 μM, 50 μM compound). Further, the CC50 in “in vitro” is over 25 µM. The IC50 in series [3] amounted to 0.5 µM. Also, the CC90 at 24 h in [6] is over 32 µM. Moreover, the MIC90 in series [5] was determined as 8 µM (≈ 4.06 µg/mL).
